The structures appear in SMILES notation. “And” between values parts separate entries of the source, which are not always exact repeats. Equal values may be shown once.

The target of this assay is Transforming acidic coiled-coil-containing protein 3 (Homo sapiens) (UniProt Q9Y6A5). As to the kind of experiment: inhibition of ARNT PAS-B/TACC3 complex formation – biochemical, AlphaScreen, cherry-picked samples, confirmation (AID 651703).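 Also: TACC3 partner is the GST-tagged E629A mutant dimer; hits lower the signal meaning they disrupt ARNT binding to TACC3.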 The settings on record: AlphaScreen His-ARNT PAS-B / GST-TACC3 binding, luminescence.
As for `Oc1c(CN2CCN(c3ccccc3)CC2)cc(Br)c2cccnc12`, the AC50 was 1.07 µM.

On to `COc1ccccc1NC(=O)CSc1ccc(-c2ccccn2)nn1`, for which the half-maximal activity concentration (AC50) is 3.1 µM.

Turning to `CN(C)CCN(C(=O)c1ccc2c(c1)CCCC2)c1nc2cc3c(cc2s1)OCCO3`, the AC50 was 19.9 µM.

For `O=C(Nc1nc(-c2ccccn2)cs1)c1ccc([N+](=O)[O-])o1`, the concentration at half-maximal activity (AC50) is 11.1 µM.

Take `Oc1c(CN2CCOCC2)cc(COCc2ccccc2)c2cccnc12`: the AC50 was 0.614 µM.

Take `Cc1ccc(NC(=O)CNCc2ccccn2)cc1S(=O)(=O)N(C)C`: the AC50 is 8.68 µM.

As to `Cn1c(-c2ccc3c(c2)OCO3)cnc1N`, the AC50 is 39 µM.

For the molecule `O=C(CSc1n[nH]c(=O)[nH]c1=O)N/N=C/c1ccccc1O`, the AC50 is 43 µM.

Turning to `CCN1CCN(C(c2cccnc2)c2cc(Cl)c3cccnc3c2O)CC1` (configuration not stated), the AC50 was 4.03 µM.

In the case of `Oc1ccc(C2=Nn3c(nnc3-c3ccco3)SC2)cc1O`, the AC50 was 6.22 µM.

Regarding `Cc1ccccc1CS(=O)(=O)Cc1ccc(C(=O)NCc2ccccn2)o1`, the AC50 was 31.6 µM.

`O=C(NCCCn1ccnc1)C(=O)NCC1OCCN1S(=O)(=O)c1ccccc1` (configuration not stated): the concentration at half-maximal activity (AC50) is 6.92 µM.

Consider `Cc1ccccc1CNc1nc(-c2ccccn2)nnc1-c1ccccc1`, for which the AC50 was 0.647 µM.

Consider `CCN(CC)C(=O)c1sc2nc(-c3ccccn3)[nH]c(=O)c2c1C`, for which the AC50 is 10.5 µM.

For the molecule `O=C(N[C@H]1CC[C@@H](CCn2cc(-c3ccccn3)nn2)O[C@@H]1CO)c1ccccc1`, the half-maximal activity concentration (AC50) was 15.5 µM.

`O=C(C1CCCC1)N1C[C@@H]2[C@H](c3ccccc31)[C@H](CO)N2C(=O)Cc1ccccn1`: the half-maximal activity concentration (AC50) was 67.4 µM.

Consider `C[C@@H](C(=O)Nc1nc(-c2ccccn2)cs1)N1C(=O)C2CCCCC2C1=O` (some centres not stated), for which the AC50 is 4.28 µM.

As for `C#CCOCCOCCOCCNc1nc(N2CCN(C(=O)[C@H](CC(N)=O)n3cc([C@@H](N)CC(N)=O)nn3)CC2)nc(N2CCN(C(=O)[C@H](CC(N)=O)n3cc([C@@H](N)CC(N)=O)nn3)CC2)n1`, the AC50 is 47.1 µM.

On to `O=C(NC[C@H]1[C@@H](c2ccccc2)[C@@H](CO)N1Cc1ccccn1)C1CCC1`, for which the concentration at half-maximal activity (AC50) was 51.5 µM.

Turning to `Cc1cccc(NC(=O)CSc2cccc3cccnc23)c1`, the AC50 was 21.8 µM.

In the case of `CCC(=O)NC(c1ccc(C)cc1)c1ccc2cccnc2c1O` (configuration not stated), the concentration at half-maximal activity (AC50) was 4.71 µM.

Consider `O=C(CSc1ccc(-c2ccccn2)nn1)c1ccc([N+](=O)[O-])cc1`, for which the AC50 is 4.73 µM.

Take `CC(NC(=O)c1ccco1)C(=O)Nc1nc(-c2ccccn2)cs1` (configuration not stated): the AC50 was 4.52 µM.

For `O=C(NCCCn1ccnc1)C(=O)NCC1OCCN1S(=O)(=O)c1ccc(F)cc1` (configuration not stated), the AC50 was 3.5 µM.

Regarding `Oc1ccc(CN2CCC(Cc3ccccc3)CC2)c2cccnc12`, the half-maximal activity concentration (AC50) was 2.48 µM.

As to `Fc1ccc(-c2ccc(CNCc3ccccn3)o2)cc1`, the AC50 is 31.2 µM.

For the molecule `O=C(CSc1ccc(-c2ccccn2)nn1)Nc1nccs1`, the AC50 was 2.93 µM.

Consider `Oc1c(C(c2ccc(Cl)cc2)N2CCCC2)cc(Cl)c2cccnc12` (configuration not stated), for which the AC50 was 1.36 µM.

Turning to `COC(=O)c1ccccc1-c1ccc(C(c2c(C)[nH][nH]c2=O)c2c(C)[nH][nH]c2=O)o1`, the AC50 was 15.7 µM.

As to `O=C(COC(=O)c1ccco1)Nc1nnc(-c2ccccc2)o1`, the AC50 was 24.8 µM.

As to `O=C(N[C@@H]1CC[C@H](CCn2cc(-c3ccccn3)nn2)O[C@H]1CO)c1cccnc1`, the AC50 was 12.2 µM.

In the case of `CCOC(=O)c1cnc(Nc2nc3ccccc3o2)nc1CN1CCN(C)CC1`, the concentration at half-maximal activity (AC50) was 6.81 µM.

As to `CN(C)c1nc(-c2ccccn2)nnc1-c1ccccc1`, the AC50 was under 0.5 µM.

Turning to `O=C(COc1ccccc1)Nc1nnc(-c2ccccc2)o1`, the half-maximal activity concentration (AC50) is 16.5 µM.

Turning to `O=C(COc1ccccc1)Nc1nnc(-c2ccco2)o1`, the AC50 was 36.6 µM.

Regarding `O=C(COc1ccccc1F)Nc1nc(-c2ccccn2)cs1`, the concentration at half-maximal activity (AC50) is 8.38 µM.

With `COc1ccc(OC)c(NC(=O)CSc2ccc3nnc(-c4ccccn4)n3n2)c1`, the AC50 is 34.3 µM.

As to `CO[C@@H]1CN(C)C(=O)c2ccc(NC(=O)c3ccccn3)cc2OC[C@@H](C)N(C(=O)C2CC2)C[C@H]1C`, the half-maximal activity concentration (AC50) is 13.1 µM.

As to `CC(C)C(=O)NC(c1ccco1)c1ccc2cccnc2c1O` (configuration not stated), the AC50 is 0.957 µM.

Consider `CCOc1ccccc1C(=O)OCC(=O)Nc1nnc(-c2ccccc2)o1`, for which the AC50 was 23.3 µM.

In the case of `Cc1cc(C)c(S(=O)(=O)N2CCOC2CNC(=O)C(=O)NCCCn2ccnc2)c(C)c1` (configuration not stated), the AC50 is 5.58 µM.

As to `O=C(CN1C(=O)/C(=C\c2cccs2)SC1=S)Nc1cccc(C(=O)O)c1`, the AC50 was 26.3 µM.

Consider `Oc1cc(Nc2ccncc2)cc2cccnc12`, for which the AC50 is 0.676 µM.

With `COc1cc(/C=N/NC(=O)c2cncc(Br)c2)cc([N+](=O)[O-])c1O`, the half-maximal activity concentration (AC50) was 42 µM.

For the molecule `O=C(N[C@H]1CC[C@H](CCn2cc(-c3ccccn3)nn2)O[C@H]1CO)c1cccnc1`, the concentration at half-maximal activity (AC50) is 24.8 µM.

Regarding `CC1CC1C(=O)Nc1nc(-c2ccccn2)cs1` (configuration not stated), the AC50 is 15.2 µM.

As for `COc1cccc(/C=N/n2c(-c3n[nH]c4c3CCC4)n[nH]c2=S)c1O`, the AC50 is 28.7 µM.

On to `O=C(Nc1ccc(F)cc1)c1nc[nH]c1C(=O)O`, for which the concentration at half-maximal activity (AC50) was 14.3 µM.

Consider `Clc1cccc(CNc2nc(-c3ccccn3)nnc2-c2ccccc2)c1`, for which the AC50 was 1.05 µM.

Regarding `CCN(CC)c1ccc(C(=C2C=CC(=[N+](CC)CC)C=C2)c2ccc(N(CC)CC)cc2)cc1`, the concentration at half-maximal activity (AC50) is 0.734 µM.

As for `COc1ccc(CNc2nc(-c3ccccn3)nnc2-c2ccccc2)cc1`, the concentration at half-maximal activity (AC50) is 0.611 µM.

As to `Cc1cc(=O)[nH]c(-n2ncc(C#N)c2N)n1`, the AC50 is 59.7 µM.

Consider `O=C(NCCCn1ccnc1)C(=O)NCC1OCCN1S(=O)(=O)c1cc(F)ccc1F` (configuration not stated), for which the AC50 was 3 µM.

For the molecule `c1cncc(-c2nc(NCCCn3ccnc3)c3ccccc3n2)c1`, the concentration at half-maximal activity (AC50) was 16.2 µM.

`Cc1nnc(NC(=O)C2CCN(S(=O)(=O)c3cc([N+](=O)[O-])ccc3Cl)CC2)o1`: the concentration at half-maximal activity (AC50) was 21.9 µM.

Regarding `C/C(=N\NC(=O)C1CCCN(S(=O)(=O)c2ccccc2)C1)c1ccccn1` (configuration not stated), the AC50 was 11.1 µM.

In the case of `O=C(O)CSc1cc(NS(=O)(=O)c2cccc([N+](=O)[O-])c2)c2ccccc2c1O`, the concentration at half-maximal activity (AC50) was 48.1 µM.

On to `C/C(=N\NC(=O)C(C)Oc1ccc([N+](=O)[O-])cc1)c1ccccn1` (configuration not stated), for which the AC50 is 4.39 µM.

Consider `O=C(Nc1nnc(-c2ccco2)o1)c1ccc(S(=O)(=O)N2CCOCC2)cc1`, for which the half-maximal activity concentration (AC50) is 36.1 µM.

For the molecule `CC1CN(Cc2ccc(O)c3ncccc23)CC(C)O1` (configuration not stated), the half-maximal activity concentration (AC50) is 2.59 µM.

For `N#Cc1ccsc1NC(=O)c1ccccn1`, the half-maximal activity concentration (AC50) is 21.9 µM.

`COc1ccc(C(=O)Nc2nnc(C3=COCCO3)o2)cc1`: the concentration at half-maximal activity (AC50) was 24.9 µM.

As for `COc1ccc(NC(=O)CSc2c(C)nn(-c3nnc(C)c(=O)[nH]3)c2C)cc1`, the concentration at half-maximal activity (AC50) is 25.2 µM.

In the case of `CC(C)(C)c1ccc(CNc2nc(-c3ccccn3)nnc2-c2ccccc2)cc1`, the AC50 is 1.33 µM.

As for `c1ccc(-c2nccc(-c3ccco3)n2)nc1`, the AC50 is 11.2 µM.

`O=C(N/N=C/c1ccccc1O)C1SCCCS1`: the AC50 was 22.6 µM.

As for `Cc1ccc(-n2c(SCC(N)=O)nnc2-c2ccccn2)cc1`, the AC50 is 34.7 µM.

Take `Cc1[nH]n(-c2ccccc2)c(=O)c1/C=N/N(c1ccccc1)c1ccccc1`: the AC50 is 16.2 µM.

As to `Cc1cccnc1Nc1nc(-c2ccccn2)cs1`, the AC50 was 0.756 µM.

In the case of `Cc1ccc(S(=O)(=O)N2CCOCC2)cc1NC(=O)CNCc1ccccn1`, the half-maximal activity concentration (AC50) is 6.07 µM.

Regarding `O=C(CSc1ccc2nnc(-c3ccccn3)n2n1)Nc1nccs1`, the half-maximal activity concentration (AC50) was 11.2 µM.

As for `Cc1cc(C)c(NC(=O)CSc2nnc(-c3ccccn3)n2N)c(Cl)c1`, the concentration at half-maximal activity (AC50) is 37.1 µM.

Regarding `COc1ccc(NC(=O)N[C@@H]2CC[C@@H](CCn3cc(-c4ccccn4)nn3)O[C@H]2CO)cc1`, the AC50 is 28.6 µM.

In the case of `CC(=O)NC(c1cc(Cl)c2cccnc2c1O)C(C)C` (configuration not stated), the AC50 was 1.47 µM.

As to `C=C1c2cccc(O)c2C(=O)C2C(=O)[C@]3(O)C(=O)C(C(N)=O)C(=O)[C@@H](N(C)C)[C@@H]3[C@@H](O)[C@H]12` (some centres not stated), the concentration at half-maximal activity (AC50) is 21.2 µM.

Turning to `Cc1ccc(NC(=O)CN(C)C(=O)COc2cccc3cccnc23)cc1`, the half-maximal activity concentration (AC50) is 41.7 µM.

Regarding `Oc1ccc(CN2CCc3ccccc3C2)c2cccnc12`, the AC50 was 0.919 µM and 1.08 µM and 2.25 µM.

With `Cc1ccc2nc(-c3ccccn3)c(NC3CCCC3)n2c1`, the half-maximal activity concentration (AC50) is 10.2 µM.

As for `O=C(Cn1cncn1)N/N=C/c1cc([N+](=O)[O-])ccc1O`, the concentration at half-maximal activity (AC50) was 4.04 µM.

Regarding `COc1cc2c(cc1O)C[C@H]1NCCc3cc4c(c-2c31)OCO4`, the half-maximal activity concentration (AC50) is 27.7 µM.

Take `O=C(N[C@@H]1CC[C@@H](CCn2cc(-c3ccccn3)nn2)O[C@@H]1CO)c1ccncc1`: the AC50 is 10.3 µM.

Consider `Cc1[nH][nH]c(=O)c1C(c1ccc(-c2ccc(C(=O)O)cc2)o1)c1c(C)[nH][nH]c1=O`, for which the AC50 was 64.1 µM.

`O=C(Nc1nc(-c2ccccn2)cs1)c1ccc(Cl)s1`: the half-maximal activity concentration (AC50) was 3.61 µM.

For the molecule `CCNC(=O)C(=O)N/N=C/c1cc([N+](=O)[O-])ccc1O`, the AC50 is 2.62 µM.

Consider `O=C(CN1CC(=O)Oc2ccccc21)OCC(=O)c1ccccc1`, for which the AC50 was 1.1 µM.

Take `Oc1cc(NCc2ccc(F)cc2)cc2cccnc12`: the AC50 is 8.9 µM.

For `CCN(CC)c1ccc(/C=N/N=C(N)N)c(O)c1`, the AC50 was 38.9 µM.

Turning to `O=C(Nc1nc(-c2ccccn2)cs1)c1ccco1`, the AC50 was 2.17 µM.

As for `O=C(Nc1nc(NC(=O)c2ccco2)n(-c2ccccc2)n1)c1ccccc1`, the AC50 is 12.9 µM.

Turning to `O=C(CSc1nnc(-c2ccccn2)o1)Nc1ccccc1F`, the half-maximal activity concentration (AC50) was 13 µM.

Consider `c1ccc(CSc2ccc(-c3ccccn3)nn2)nc1`, for which the concentration at half-maximal activity (AC50) was 0.895 µM.

In the case of `Cc1ccc(C2(C)NC(=O)N(CC(=O)Nc3nc(-c4ccccn4)cs3)C2=O)cc1` (configuration not stated), the AC50 was 4.67 µM.

As to `O=C(COC(=O)c1ccccn1)c1cccc(Br)c1`, the AC50 was 11.8 µM.

Consider `CN1CC[C@@]2(C)c3cc(O)ccc3N(C)[C@@H]12`, for which the AC50 was 60.1 µM.

As for `COc1ccc(NC(=O)N[C@H]2CC[C@@H](CCn3cc(-c4ccccn4)nn3)O[C@H]2CO)cc1`, the AC50 was 17 µM.

Take `Cc1cccc(S(=O)(=O)N[C@@H]2CC[C@@H](CCn3cc(-c4ccccn4)nn3)O[C@@H]2CO)c1`: the AC50 was 26.7 µM.

As for `O=C(CSc1ccc(-c2ccccn2)nn1)N1CCCC1`, the AC50 was 3.05 µM.

(Values after PubChem BioAssay AID651703 (Broad Institute, 2012).)
